“Also recorded” adds a separate entry of the source.
Key:
HsubOR6/HsubOrco = HsubOR6/HsubOrco (Heliothis subflexa, UniProt A0A8E4MSQ8); experiment: HsubOR6/HsubOrco co-expressed in Xenopus oocytes, two-electrode voltage clamp; format: cell-based; details: for response of receptor to compound: 10^-4 M solution
HvirOR6/HvirOrco = HvirOR6/HvirOrco (Heliothis virescens, UniProt Q8MMI0); experiment: HvirOR6/HvirOrco co-expressed in Xenopus oocytes, two-electrode voltage clamp; format: cell-based; details: for response of receptor to compound / response (inward current): HvirOR6/HvirOrco Xenopus oocytes; for response (inward current): concentration of 10^-4 M
[1] = molecular target: VM321 (HvirOR6 L321V, VM6) (Heliothis virescens, UniProt Q8MMI0, L321V); experiment: cell-based; format: cell-based; details: for response of mutant receptor to compound: 10^-4 M, HvirOR6 L321V (VM6/VM321)
SM321 (HsubOR6 V321L) = SM321 (HsubOR6 V321L) (Heliothis subflexa, UniProt A0A8E4MSQ8, V314L); experiment: cell-based; format: cell-based; details: for response of mutant receptor compared with HsubOR6: 10^-4 M, HsubOR6 V321L (SM321)
[2] = system: chimeric OR6s (VSS, SVV, VVS, and SSV); format: cell-based, Heliothis virescens, Heliothis subflexa
[3] = system: HvirOR6 mutants VM5, VM7, VM10, VM11, VM13, VM14, VM17, VM21, VM22, and VM30; format: cell-based, Heliothis virescens; details: 10^-4 M, 10 mutants VM5, VM7, VM10, VM11, VM13, VM14, VM17, VM21, VM22, VM30
[4] = system: HvirOR6 mutants VM1, VM2, VM3, VM4, VM12, VM15, VM16, VM20, VM23, VM24, VM29, and VM31; format: cell-based, Heliothis virescens; details: 10^-4 M, 12 mutants VM1, VM2, VM3, VM4, VM12, VM15, VM16, VM20, VM23, VM24, VM29, VM31
[5] = system: HvirOR6 mutants VM8, VM26, VM27, and VM28; format: cell-based, Heliothis virescens; details: 10^-4 M
[6] = system: HvirOR6 mutants VM9 and VM25; format: cell-based, Heliothis virescens; details: 10^-4 M
HvirOR6 mutant VM18 = format: cell-based, Heliothis virescens; details: 10^-4 M
HvirOR6 mutant VM19 = format: cell-based, Heliothis virescens; details: 10^-4 M
HsubOR13/HsubOrco = HsubOR13/HsubOrco co-expressed in Xenopus oocytes, two-electrode voltage clamp; details: 10^-4 M solution
Experimental: (§1) Stock solutions (1 M) were dissolved in dimethyl sulfoxide (DMSO) and stored at −20°C. Before experiments, the stock solution was diluted in 1 × Ringer's buffer (96 mM NaCl, 2 mM KCl, 5 mM MgCl2, 0.8 mM CaCl2 and 5 mM HEPES, pH 7.6) to working concentration of 10^−4 M. 1 × Ringer's buffer containing 0.1% DMSO was used as a negative control.
(§2) The vectors contain the full ORF of all ORs were linearized to prepare the templates and the cRNA was synthesized with mMESSAGE mMACHINE SP6 (Ambion). Stage V to VII oocytes were treated with 2 mg/mL collagenase I (GIBCO, Carlsbad, CA) in 1 × Ca^2+-free washing buffer (96 mM NaCl, 2 mM KCl, 5 mM MgCl2 and 5 mM HEPES, pH 7.6) for about 1 h at room temperature. After being cultured overnight at 18°C, oocytes were then microinjected with 27.6 ng of Orco cRNA and 27.6 ng of ORs cRNA. Oocytes microinjected with 55.2 ng of Orco were used as negative controls. Injected oocytes were incubated for 4–7 days at 18°C in 1 × washing buffer (96 mM NaCl, 2 mM KCl, 5 mM MgCl2, 0.8 mM CaCl2 and 5 mM HEPES, pH 7.6) supplemented with 5% dialysed horse serum, 50 mg/mL tetracycline, 100 mg/mL streptomycin and 550 mg/mL sodium pyruvate.
(§3) Whole-cell currents were recorded with a two-electrode voltage clamp from the injected oocytes. Odorant-induced currents were recorded with an OC-725C oocyte clamp (Warner Instruments, Hamden, CT, USA) at a holding potential of −80 mV. […]

HsubOR14/HsubOrco = HsubOR14/HsubOrco co-expressed in Xenopus oocytes, two-electrode voltage clamp; details: 10^-4 M solution
Experimental: as §1, §2, §3

HsubOR16/HsubOrco = HsubOR16/HsubOrco co-expressed in Xenopus oocytes, two-electrode voltage clamp; details: 10^-4 M solution
Experimental: as §1, §2, §3

Sequence of HsubOR6/HsubOrco (A0A8E4MSQ8 1-424): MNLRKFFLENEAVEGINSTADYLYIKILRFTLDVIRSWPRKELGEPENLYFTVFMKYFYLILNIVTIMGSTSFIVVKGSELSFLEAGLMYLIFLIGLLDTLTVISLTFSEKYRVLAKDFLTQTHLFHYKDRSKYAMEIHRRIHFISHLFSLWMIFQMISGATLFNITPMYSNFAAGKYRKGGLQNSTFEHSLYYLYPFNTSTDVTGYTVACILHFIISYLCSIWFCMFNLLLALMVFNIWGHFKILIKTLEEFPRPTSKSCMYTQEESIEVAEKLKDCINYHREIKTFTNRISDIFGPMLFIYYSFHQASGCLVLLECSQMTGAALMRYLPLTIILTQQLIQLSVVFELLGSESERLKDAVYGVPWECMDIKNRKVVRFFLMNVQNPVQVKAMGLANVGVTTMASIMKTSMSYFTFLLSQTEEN

Q: What does the source list for `CCCC/C=C\CCCCCCCC=O` [Z9-14:Ald, (Z)-9-tetradecenal]?
A: response of receptor to compound (HsubOR6/HsubOrco): little if any response; also recorded: lost its ability to recognize; response to Z9-14:Ald relative to that to Z9-16:Ald (HvirOR6/HvirOrco; 10^-4 M, HvirOR6): about 8.23 times; response of receptor to compound (HvirOR6/HvirOrco): responsive; response (inward current) (HvirOR6/HvirOrco): 1,541.96 nA; response of mutant receptor to compound [1]: lost its response; also recorded: lost its ability to bind; response of mutant receptor compared with HsubOR6 (SM321 (HsubOR6 V321L)): remained unchanged; response of chimeric OR6s compared with original sequences [2]: decreased significantly; response of HvirOR6 mutants compared with HvirOR6 [3]: did not have altered responses; response of HvirOR6 mutants compared with HvirOR6 [4]: significant decrease in the response; response of HvirOR6 mutants compared with HvirOR6 [5]: increased responses; response of HvirOR6 mutants compared with HvirOR6 [6]: decreased responses

Q: How did the “response of receptor to compound” value (HsubOR6/HsubOrco) turn out when `CCCCCC/C=C\CCCCCCCC=O` [Z9-16:Ald, (Z)-9-hexadecenal] was run?
A: Its value is “responded; also recorded: specifically responsive”.

Q: And the “average response (inward current)” value (HsubOR6/HsubOrco; concentration of 10^-4 M)?
A: Its value is 184.04 nA.

Q: What about the EC50 (HsubOR6/HsubOrco; holding potential -80 mV, read-out: EC50 (dose-response of inward current)) of the same compound?
A: The EC50 was 46.3 µM.

Q: And the EC50 (HvirOR6/HvirOrco)?
A: Its EC50 is 24.8 µM.

Q: And the “response of receptor to compound” value (HvirOR6/HvirOrco)?
A: Its value is “responsive”.

Q: What about the “response (inward current)” value (HvirOR6/HvirOrco) of the same compound?
A: Its value is 187.44 nA.

Q: What about the EC50 [1] of the same compound?
A: The EC50 was 40.8 µM.

Q: And the “response of mutant receptor to compound” value [1]?
A: The value was “retaining the response”.

Q: What about the EC50 (SM321 (HsubOR6 V321L)) of the same compound?
A: Its EC50 is 20.4 µM.

Q: And the “response of mutant receptor compared with HsubOR6” value (SM321 (HsubOR6 V321L))?
A: The value was “increased”.

Q: And the “response of chimeric OR6s compared with original sequences” value [2]?
A: Its value is “decreased significantly”.

Q: And the “response of HvirOR6 mutants compared with HvirOR6” value [3]?
A: Its value is “did not have altered responses”.

Q: And the “response of HvirOR6 mutants compared with HvirOR6” value [4]?
A: Its value is “significant decrease in the response”.

Q: What about the “response of HvirOR6 mutant compared with HvirOR6” value (HvirOR6 mutant VM18) of the same compound?
A: Its value is “increased response”.

Q: What about the “response of HvirOR6 mutant compared with HvirOR6” value (HvirOR6 mutant VM19) of the same compound?
A: The value was “decreased response”.

Q: With `CCCC/C=C\CCCCCCCCCC=O` [Z11-16:Ald, (Z)-11-hexadecenal] as the compound, how does the “response of receptor to compound” value (HsubOR13/HsubOrco) read?
A: The value was “specifically responded”.

Q: `CCCC/C=C\CCCCCCCCCCOC(C)=O` [Z11-16:OAc, (Z)-11-hexadecenyl acetate] was tested. Which “response of receptor to compound” value (HsubOR14/HsubOrco) did it give?
A: The value was “specifically activated”.

Q: Which “response of receptor to compound” value (HsubOR16/HsubOrco) does the source give for `CCCC/C=C\CCCCCCCCCCO` [Z11-16:OH, (Z)-11-hexadecen-1-ol] here?
A: Its value is “responded robustly”.

Source: article PMC8403742, “A single point mutation causes one-way alteration of pheromone receptor function in two Heliothis species” (iScience, 2021)
